Like-named read-outs stand apart in the source and are kept apart here.
Key:
CNSSF 268 = assay: cells; format: cell-based
Procedure: (§1) Conjugates 1 and 2 were sent to the United States National Cancer Institute (NCI) for screening in the NCI's anticancer screening program. The conjugates were provided in ethanol (approximately 40 mg analog/2 ml ethanol). […] Instructions were provided to store at 4° C. and to open the vials only when ready for immediate experimental use. Instructions also were provided to use the ethanol solutions containing the conjugates directly or to dissolve the analogs further in DMSO (dimethylsulfoxide) at appropriate concentrations, with vortexing if necessary for adequate dispersal.
(§2) The activities of conjugates 1 and 2 were tested against 57 cancer cell lines. […] To understand the data, reference is made to the guides provided by the NCI, excerpted as follows:
(§3) The Calculated Measurement of Effect: Percentage Growth (PG)
(§4) The measured effect of the compound on a cell line is currently calculated according to one or the other of the following two expressions:
(§5) If (Mean ODtext−Mean ODtzero)≧0, then PG=100×(Mean ODtest−Mean ODtzero)/(Mean ODctrl−Mean Odtzero)
(§6) If (Mean ODtest−Mean ODtzero)<0, then PG=100×(Mean ODtest−Mean Odtzero)/Mean Odtzero
(§7) Where: • Mean ODtzero=The average of optical density measurements of SRB-derived color just before exposure of cells to the test compound. • Mean ODtest=The average of optical density measurements of SRB-derived color after 48 hours exposure of cells to the test compound. • Mean ODctrl=The average of optical density measurements of SRB-derived color after 48 hours with no exposure of cells to the test compound.
(§8) Experimental data was collected against each cell line. . . . . Each concentration is expressed as the log10 (molar or μg/ml) . . . . The response parameters GI50, TGI, and LC50 are interpolated values representing the concentrations at which the PG is +50, 0, and −50, respectively. Sometimes these response parameters cannot be obtained by interpolation. If, for instance, all of the PGs in a given row exceed +50, then none of the three parameters can be obtained by interpolation. In such a case, the value given for each response parameter is the highest concentration tested. This practice is extended similarly to the other possible situations where a response parameter cannot be obtained by interpolation.
(§9) The dose-response curve page of the data package is created by plotting the PGs against the log10 of the corresponding concentration for every cell line. The cell line curves are grouped by subpanel. Horizontal lines are provided at the PG values of +50, 0, and −50. The concentrations corresponding to points where the curves cross these lines are the GI50, TGI and LC50, respectively.

CNS SF-539 = assay: cells; format: cell-based; conditions: for TGI: concentration at which PG is 0, CNS SF-539
Procedure: as §1, §2, §3, §4, §5, §6, §7, §8, §9

[1] = in vivo; cited from earlier work
57 cancer cell lines = format: cell-based; conditions: for potency relative to Taxol: many cell lines tested; for pattern of activity versus Taxol (NCI statistical analysis): statistical analysis designed by the NCI
Procedure: Conjugates 1 and 2 were sent to the United States National Cancer Institute (NCI) for screening in the NCI's anticancer screening program. The conjugates were provided in ethanol (approximately 40 mg analog/2 ml ethanol). The conjugates were sealed in vials under argon to avoid exposure of the conjugates to oxygen because the conjugates were believed to be sensitive to oxygen. Instructions were provided to store at 4° C. and to open the vials only when ready for immediate experimental use. Instructions also were provided to use the ethanol solutions containing the conjugates directly or to dissolve the analogs further in DMSO (dimethylsulfoxide) at appropriate concentrations, with vortexing if necessary for adequate dispersal.
as §2, §3, §4, §5, §6, §7, §8, §9

[2] = test system: non-small cell lung cancer lines H522 and H460; format: cell-based
Procedure: as §1, §2, §3, §4, §5, §6, §7, §8, §9

[3] = test system: leukemia cancer cell lines; format: cell-based; conditions: six lines for the conjugates, four lines for Taxol; FIGS. 1, 10 and 19
Procedure: as §1, §2, §3, §4, §5, §6, §7, §8, §9

[4] = test system: MDA-N and MDA-MB-435 breast cancer cell lines; format: cell-based; conditions: all concentrations tested
Procedure: as §1, §2, §3, §4, §5, §6, §7, §8, §9

CNSU251 = format: cell-based
Procedure: as §1, §2, §3, §4, §5, §6, §7, §8, §9

Structure (SMILES): CC(=O)O[C@H]1C(=O)[C@@]2(C)[C@H]([C@H](OC(=O)c3ccccc3)[C@]3(O)C[C@H](OC(=O)[C@H](O)[C@@H](NC(=O)c4ccccc4)c4ccccc4)C(C)=C1C3(C)C)[C@]1(OC(C)=O)CO[C@@H]1C[C@@H]2O [Taxol, paclitaxel, reference compound]
- GI50 (CNSSF 268; concentration at which PG is +50, 48 hours exposure, CNSSF 268): less than −10.0 log10 (molar or μg/ml)
- TGI (CNS SF-539; 48 hours exposure): −6.95 log10 (molar or μg/ml)
- GI50 (CNS SF-539; concentration at which PG is +50, 48 hours exposure, CNS SF 539): −7.52 log10 (molar or μg/ml)
- entry into the brain [1]: does not get into the brain
- average GI50 across all cell lines tested (57 cancer cell lines; average over cell lines, −10 used where Taxol was active at −10.0): at least −9.19 log10 (molar or μg/ml)
- difference in effectiveness, H522 versus H460, at TGI [2]: about 3 logs
- effectiveness against leukemia cell lines [3]: somewhat effective

Structure (SMILES): CC/C=C\C/C=C\C/C=C\C/C=C\C/C=C\C/C=C\CCC(=O)OC(C(=O)OC1C[C@@]2(O)[C@@H](OC(=O)c3ccccc3)[C@@H]3[C@]4(OC(C)=O)CO[C@@H]4C[C@H](O)[C@@]3(C)C(=O)[C@H](OC(C)=O)C(=C1C)C2(C)C)[C@@H](NC(=O)c1ccccc1)c1ccccc1 (stereo partly shown) [conjugate 1]
- GI50 (CNSSF 268; concentration at which PG is +50, 48 hours exposure, CNSSF 268, read-out: GI50 (converted)): 4.37 µM
- GI50 (CNS SF-539; CNSSF-539, concentration at which PG is +50, 48 hours exposure, CNS SF 539, read-out: GI50 (converted)): 0.603 µM
- TGI (CNS SF-539; 48 hours exposure): −5.13 log10 (molar or μg/ml)
- potency relative to Taxol (57 cancer cell lines): one thousand to ten thousand times less potent than Taxol
- pattern of activity versus Taxol (NCI statistical analysis) (57 cancer cell lines): statistically different
- relative effectiveness against H460 versus H522 at TGI [2]: slightly more effective against H460 than H522
- relative activity toward MDA-N versus MDA-MB-435 [4]: more effective against MDA-N than MDA-MB-435
- effectiveness at TGI against CNSU251 relative to other CNS cell lines (CNSU251): most effective
- effectiveness against leukemia cell lines [3]: not very effective

Structure (SMILES): CC/C=C\C/C=C\C/C=C\C/C=C\C/C=C\C/C=C\CCC(=O)O[C@H]1C[C@H]2OC[C@@]2(OC(C)=O)[C@H]2[C@H](OC(=O)c3ccccc3)[C@]3(O)CC(OC(=O)C(O)[C@@H](NC(=O)c4ccccc4)c4ccccc4)C(C)=C([C@@H](OC(C)=O)C(=O)[C@]12C)C3(C)C (stereo partly shown) [conjugate 2]
- GI50 (CNSSF 268; 48 h): 5.25 µM
- GI50 (CNS SF-539; CNSSF-539, 48 h): 2.75 µM
- TGI (CNS SF-539; 48 hours exposure): −5.53 log10 (molar or μg/ml)
- potency relative to Taxol (57 cancer cell lines): one thousand to ten thousand times less potent than Taxol
- pattern of activity versus Taxol (NCI statistical analysis) (57 cancer cell lines): statistically different
- relative effectiveness against H460 versus H522 at TGI [2]: slightly more effective against H460 than H522
- relative activity toward MDA-N versus MDA-MB-435 [4]: more effective against MDA-N than MDA-MB-435
- effectiveness at TGI against CNSU251 relative to other CNS cell lines (CNSU251): very effective
- effectiveness against leukemia cell lines [3]: not very effective

— patent US8314077B2 (priority 1996, dated 2012)
